Measurements as given in patent US9302999B2, “Substituted triazoles as herbicides” (E. I. DU PONT DE NEMOURS AND COMPANY, priority 2012, dated 2016).

What was measured:
Format in all cases: in vivo
[1] = test system: barnyardgrass (Echinochloa crus-galli); assay: Test A pre-/postemergence: barnyardgrass; conditions: for Barnyardgrass plant response rating: Postemergence; for Plant response rating, Barnyardgrass: Preemergence
In short: (§1)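 Compounds, formulated with surfactant in non-phytotoxic solvent, were applied as a directed soil spray preemergence and as postemergence sprays to 2–10 cm, one- to two-leaf seedlings grown in loam soil blended with sand; visual injury, 0–100, assessed ~10 days post-treatment against untreated controls.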

[2] = test system: ducksalad (Heteranthera limosa); assay: Test B flooded paddy: ducksalad; conditions: Flood; 250 g ai/ha; applied to paddy water at 2-leaf stage; visually evaluated after 13 to 15 days
Protocol: (§2) Seeds selected from rice (Oryza sativa), sedge, umbrella (small-flower umbrella sedge Cyperus difformis), ducksalad (Heteranthera limosa), and barnyardgrass (Echinochloa crus-galli) were grown to the 2-leaf stage for testing. At time of treatment, test pots were flooded to 3 cm above the soil surface, treated by application of test compounds directly to the paddy water, and then maintained at that water depth for the duration of the test.
(§3) Treated plants and controls were maintained in a greenhouse for 13 to 15 days, after which time all species were compared to controls and visually evaluated. Plant response ratings, summarized in Table B, are based on a scale of 0 to 100 where 0 is no effect and 100 is complete control. A dash (-) response means no test result.

corn (Zea mays) = assay: Test A pre-/postemergence: corn; conditions: for Corn plant response rating: Postemergence; for Plant response rating, Corn: Preemergence
In short: as §1

[3] = test system: sedge, umbrella (small-flower umbrella sedge Cyperus difformis); assay: Test B flooded paddy: sedge, umbrella; conditions: Flood; 250 g ai/ha; applied to paddy water at 2-leaf stage; visually evaluated after 13 to 15 days
Protocol: as §2, §3

rice (Oryza sativa) = assay: Test B flooded paddy: rice; conditions: Flood; 250 g ai/ha; applied to paddy water at 2-leaf stage; visually evaluated after 13 to 15 days
Protocol: as §2, §3

[4] = test system: pigweed (Amaranthus retroflexus); assay: Test A pre-/postemergence: pigweed; conditions: for Pigweed plant response rating: Postemergence; for Plant response rating, Pigweed: Preemergence
In short: as §1

[5] = test system: foxtail, giant (giant foxtail, Setaria faberii); assay: Test A pre-/postemergence: foxtail, giant; conditions: for Foxtail, Giant plant response rating: Postemergence; for Plant response rating, Foxtail, Giant: Preemergence
In short: as §1

[6] = test system: wheat (Triticum aestivum); assay: Test A pre-/postemergence: wheat; conditions: for Wheat plant response rating: Postemergence; for Plant response rating, Wheat: Preemergence
In short: as §1

[7] = test system: barnyardgrass (Echinochloa crus-galli); assay: Test B flooded paddy: barnyardgrass; conditions: Flood; 250 g ai/ha; applied to paddy water at 2-leaf stage; visually evaluated after 13 to 15 days
Protocol: as §2, §3

[8] = test system: velvetleaf (Abutilon theophrasti); assay: Test A pre-/postemergence: velvetleaf; conditions: for Velvetleaf plant response rating: Postemergence; for Plant response rating, Velvetleaf: Preemergence
In short: as §1

[9] = test system: morningglory (Ipomoea spp.); assay: Test A pre-/postemergence: morningglory; conditions: for Morningglory plant response rating: Postemergence; for Plant response rating, Morningglory: Preemergence
In short: as §1

[10] = test system: crabgrass, large (large crabgrass, Digitaria sanguinalis); assay: Test A pre-/postemergence: crabgrass, large; conditions: for Crabgrass, Large plant response rating: Postemergence; for Plant response rating, Crabgrass, Large: Preemergence
In short: as §1

[11] = 125 g ai/ha, 0 to 100 scale, 0 is no effect, 100 is complete control
[12] = 500 g ai/ha, visual rating on 0 to 100 scale (0 no effect, 100 complete control), approximately ten days
[13] = 125 g ai/ha, 0 to 100 scale (0 no effect, 100 complete control)
[14] = 500 g ai/ha, 0 to 100 scale, 0 is no effect, 100 is complete control

Row | SMILES | Barnyardgrass plant response rating [1, 11] | Barnyardgrass plant response rating [1, 12] | Plant response rating, Barnyardgrass [1, 13] | Plant response rating, Barnyardgrass [1, 14] | Plant response rating, Ducksalad (0 to 100 scale, 0 is no effect, 100 is complete control) [2] | Corn plant response rating (corn (Zea mays); [11]) | Corn plant response rating (corn (Zea mays); [12]) | Plant response rating, Corn (corn (Zea mays); [13]) | Plant response rating, Corn (corn (Zea mays); [14]) | Plant response rating, Sedge, Umbrella (0 to 100 scale, 0 is no effect, 100 is complete control) [3] | Plant response rating, Rice (0 to 100 scale, 0 is no effect, 100 is complete control) (rice (Oryza sativa)) | Pigweed plant response rating [4, 11] | Pigweed plant response rating [4, 12] | Plant response rating, Pigweed [4, 13] | Plant response rating, Pigweed [4, 14] | Foxtail, Giant plant response rating [5, 11] | Foxtail, Giant plant response rating [5, 12] | Plant response rating, Foxtail, Giant [5, 13] | Plant response rating, Foxtail, Giant [5, 14] | Wheat plant response rating [6, 11] | further results
1 | COc1nn(-c2ccc(F)cc2)nc1C(=O)c1ccnc(C(F)(F)F)c1 [Compound 24] | 0 | 20 | 0 | 0 | 0 | 10 | 20 | 0 | 0 | 0 | 0 | 40 | 90 | 0 | 20 | 10 | 20 | 20 | 70 | 10 | Wheat plant response rating [6, 12]: 10; Plant response rating, Wheat [6, 13]: 0; Plant response rating, Wheat [6, 14]: 0; Plant response rating, Barnyardgrass (0 to 100 scale, 0 is no effect, 100 is complete control) [7]: 0; Velvetleaf plant response rating [8, 11]: 20; Velvetleaf plant response rating [8, 12]: 20; Plant response rating, Velvetleaf [8, 13]: 0; Plant response rating, Velvetleaf [8, 14]: 0; Morningglory plant response rating [9, 11]: 20; Morningglory plant response rating [9, 12]: 20; Plant response rating, Morningglory [9, 13]: 0; Plant response rating, Morningglory [9, 14]: 0; Crabgrass, Large plant response rating [10, 11]: 10; Crabgrass, Large plant response rating [10, 12]: 20; Plant response rating, Crabgrass, Large [10, 13]: 0; Plant response rating, Crabgrass, Large [10, 14]: 20
2 | CSc1nn(-c2ccc(F)cc2)nc1Cc1ccnc(C(F)(F)F)c1 [Compound 27] | 0 | 20 | 0 | 10 | 50 | 20 | 20 | 0 | 0 | 20 | 10 | 90 | 100 | 0 | 80 | 30 | 40 | 10 | 80 | 20 | Wheat plant response rating [6, 12]: 40; Plant response rating, Wheat [6, 13]: 0; Plant response rating, Wheat [6, 14]: 0; Plant response rating, Barnyardgrass (0 to 100 scale, 0 is no effect, 100 is complete control) [7]: 20; Velvetleaf plant response rating [8, 11]: 40; Velvetleaf plant response rating [8, 12]: 50; Plant response rating, Velvetleaf [8, 13]: 0; Plant response rating, Velvetleaf [8, 14]: 0; Morningglory plant response rating [9, 11]: 40; Morningglory plant response rating [9, 12]: 90; Plant response rating, Morningglory [9, 13]: 0; Plant response rating, Morningglory [9, 14]: 0; Crabgrass, Large plant response rating [10, 11]: 30; Crabgrass, Large plant response rating [10, 12]: 40; Plant response rating, Crabgrass, Large [10, 13]: 20; Plant response rating, Crabgrass, Large [10, 14]: 40
3 | Cc1ccc(-n2nc(C)c(C(=O)c3cccc(C(F)(F)F)c3)n2)cc1 [Compound 44] | 20 | 20 | 0 | 30 | 0 | 30 | 30 | 0 | 20 | 0 | 0 | 70 | 90 | 20 | 90 | 20 | 30 | 70 | 90 | 20 | Wheat plant response rating [6, 12]: 30; Plant response rating, Wheat [6, 13]: 0; Plant response rating, Wheat [6, 14]: 30; Plant response rating, Barnyardgrass (0 to 100 scale, 0 is no effect, 100 is complete control) [7]: 0; Velvetleaf plant response rating [8, 11]: 60; Velvetleaf plant response rating [8, 12]: 70; Plant response rating, Velvetleaf [8, 13]: 0; Plant response rating, Velvetleaf [8, 14]: 50; Morningglory plant response rating [9, 11]: 20; Morningglory plant response rating [9, 12]: 70; Crabgrass, Large plant response rating [10, 11]: 30; Crabgrass, Large plant response rating [10, 12]: 40; Plant response rating, Crabgrass, Large [10, 13]: 60; Plant response rating, Crabgrass, Large [10, 14]: 90
4 | Cc1nn(-c2ccc(Br)cc2)nc1Oc1ccnc(C(F)(F)F)c1 [Compound 53] | 90 | 90 | 80 | 100 | 85 | 30 | 40 | 0 | 20 | 85 | 50 | 100 | 100 | 90 | 100 | 90 | 90 | 100 | 100 | 20 | Wheat plant response rating [6, 12]: 30; Plant response rating, Wheat [6, 13]: 10; Plant response rating, Wheat [6, 14]: 30; Plant response rating, Barnyardgrass (0 to 100 scale, 0 is no effect, 100 is complete control) [7]: 60; Velvetleaf plant response rating [8, 11]: 80; Velvetleaf plant response rating [8, 12]: 100; Plant response rating, Velvetleaf [8, 13]: 10; Plant response rating, Velvetleaf [8, 14]: 50; Plant response rating, Morningglory [9, 13]: 30; Plant response rating, Morningglory [9, 14]: 40; Crabgrass, Large plant response rating [10, 11]: 90; Crabgrass, Large plant response rating [10, 12]: 90; Plant response rating, Crabgrass, Large [10, 13]: 100; Plant response rating, Crabgrass, Large [10, 14]: 100
